Data: patent publication US20080318943A1, “Compounds and Uses Thereof - 848” (ASTRAZENECA AB, priority 2007, published 2008)

Legend:
[1] = biological target: T1, GABAA2 receptors (α2, β3, γ2 receptor subunits transfected into Sf9 cells) (Homo sapiens, UniProt P18507+P47869); assay: GABAA2 Binding Method ([3H]-Flunitrazepam displacement); settings: [3H]-Flunitrazepam ~2 nM, α2β3γ2 Sf9 membranes, 1 hr at 4° C.
T1 construct: host or cells: Sf9 cells (membranes)
Protocol: In some embodiments, the binding test is directed to a subtype of GABAA receptors, such as GABAA1 receptors (i.e., those containing the α1 subunit), GABAA2 receptors (i.e., those containing the α2 subunit), GABAA3 receptors (i.e., those containing the α3 subunit) and GABAA5 receptors (i.e., those containing the α5 subunit).
[^3H]-Flunitrazepam (Cat #NET567): Prepare 10× stock=20 nM, [F} in assay=˜2 nM
1. […] Add 5 ul of 30 uM flumazenil to wells 12 D-E for 50% control wells.
5. Add 25 μl [^3H]-Flunitrazepam (Automation Program 6). Incubate for 1 hr at 4° C.
6. Collect membranes on a cell harvester onto GF/B filter plates (pre-wet with dH2O and wash 5×400 μl/well, with cold assay buffer. (First 3 washes are considered hot; last two are cold.)
Data is analyzed by calculating percent of control, IC50, and Ki in an XLfit template. The following formula is used in the templates: […]

[2] = biological target: T2, GABAA receptor α1β2γ2 (Homo sapiens, UniProt P14867+P18507); assay: Two-electrode voltage-clamp potentiation of GABA EC10 current in Xenopus oocytes, GABAA1; type: cell-based; settings: percentage potentiation of GABA EC10 current divided by that of diazepam
T2 construct: expressed in transfected cells; host or cells: Xenopus laevis oocytes injected with cRNA
T2 sequence (P14867 28-456): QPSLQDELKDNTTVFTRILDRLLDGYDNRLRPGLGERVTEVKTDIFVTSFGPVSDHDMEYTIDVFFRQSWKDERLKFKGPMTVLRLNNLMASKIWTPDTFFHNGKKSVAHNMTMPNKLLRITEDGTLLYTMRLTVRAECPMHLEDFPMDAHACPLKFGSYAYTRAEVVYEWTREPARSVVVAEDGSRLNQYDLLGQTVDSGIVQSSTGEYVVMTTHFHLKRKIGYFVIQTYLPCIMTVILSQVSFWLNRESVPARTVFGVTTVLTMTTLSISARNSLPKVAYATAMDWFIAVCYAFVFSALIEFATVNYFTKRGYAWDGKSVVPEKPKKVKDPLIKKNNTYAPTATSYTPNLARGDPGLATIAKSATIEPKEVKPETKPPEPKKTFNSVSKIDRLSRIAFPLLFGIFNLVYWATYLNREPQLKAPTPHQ
T2 sequence (P47870 25-512 partner limits assumed): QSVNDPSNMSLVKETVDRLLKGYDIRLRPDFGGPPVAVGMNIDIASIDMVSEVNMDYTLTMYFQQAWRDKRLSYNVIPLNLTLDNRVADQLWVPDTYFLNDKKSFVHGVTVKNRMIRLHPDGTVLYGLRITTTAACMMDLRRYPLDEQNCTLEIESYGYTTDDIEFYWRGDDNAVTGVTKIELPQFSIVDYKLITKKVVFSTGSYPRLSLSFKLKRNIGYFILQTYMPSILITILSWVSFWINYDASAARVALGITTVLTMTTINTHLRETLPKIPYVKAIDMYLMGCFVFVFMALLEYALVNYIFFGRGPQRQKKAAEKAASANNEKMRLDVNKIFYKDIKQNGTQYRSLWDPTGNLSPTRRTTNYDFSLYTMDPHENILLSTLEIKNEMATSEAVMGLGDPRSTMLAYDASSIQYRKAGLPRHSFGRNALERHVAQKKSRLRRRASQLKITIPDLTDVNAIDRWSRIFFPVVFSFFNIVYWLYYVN
T2 sequence (P18507 40-475): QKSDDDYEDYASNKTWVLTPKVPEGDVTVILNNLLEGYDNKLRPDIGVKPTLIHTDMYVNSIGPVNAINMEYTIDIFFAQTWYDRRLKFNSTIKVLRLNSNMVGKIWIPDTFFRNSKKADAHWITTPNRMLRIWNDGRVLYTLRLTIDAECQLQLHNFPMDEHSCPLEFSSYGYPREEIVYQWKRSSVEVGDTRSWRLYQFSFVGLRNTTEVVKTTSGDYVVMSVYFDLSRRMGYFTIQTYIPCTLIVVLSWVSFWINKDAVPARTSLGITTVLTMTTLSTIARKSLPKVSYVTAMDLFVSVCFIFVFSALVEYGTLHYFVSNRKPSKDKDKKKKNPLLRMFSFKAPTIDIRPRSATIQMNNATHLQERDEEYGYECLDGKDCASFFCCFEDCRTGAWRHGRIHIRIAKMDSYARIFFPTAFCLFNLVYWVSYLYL
Protocol: GABAA receptors were heterologously expressed in Xenopus oocytes by injecting cRNA corresponding to human α1, α2, α3, α5, β2, P3 and γ2 subunits of the GABAA receptor genes. The specific subunit combinations (subtypes) were as follows: α1β2γ2, α2β3γ2, α3β3γ2, and α5β3γ2. The EC10 of GABA is approximated for each cell. Stability of GABA-mediated (EC10) current is established. Modulatory effect of test compound is determined and compared across subtypes. […] Thus, the assay can characterize modulatory effects and determine subtype selectivity of test compounds on major subtypes of GABAA receptors.
Xenopus laevis frogs (Xenopus I, Kalamazoo, Mich.) were anesthetized using 0.15% tricaine. Surgically removed ovarian lobes were teased out in OR2 solution (82 NaCl, 2.5 KCl, 5 HEPES, 1.5 NaH2PO4, 1 MgCl2, 0.1 EDTA, in mM, pH 7.4). The oocytes were defolliculated by incubation in 25 mL OR2 containing 0.2% collagenase 1A (SIGMA) two times for about 60 minutes on a platform shaker and stored in Leibovitz's L-15 medium. Oocytes were injected the following day in 0.5× Leibovitz's L-15 medium containing […] gentamycin, 10 units/ml penicillin, and […] streptomycin.
Capped cRNAs from the linearized vectors containing human α1, β2 and γ2 subunits of the GABAA receptor genes were mixed in ratio of […]. Oocytes were injected with 25-50 nL of mixed RNA with an appx molar ratio for α1, β2, and γ2 as 1:1:10. Oocyte recordings were done 2-10 days after injection. The same methods apply to subtypes derived from α2β3γ2, α3β3γ2, and α5β3γ2, except for 1:1:1 ratio was used for α, β, and γ subunits.
All measurements were done in a medium containing ND-96 (96 NaCl, 2 KCl, 1.8 CaCl2.2H2O, 1 MgCl2.6H2O, 5 HEPES, in mM, pH 7.5). Two-electrode voltage-clamp recording was carried out using OpusXpress amplifier (Axon Instruments, Foster City, Calif.), which allows simultaneous recording from 8 oocytes. Oocytes were impaled with two electrodes of 1-2 MΩ tip resistance when filled with 3M KCl. Recordings were begun when membrane potential became stable at potentials negative to −50-−60 mV. Membrane potential was held at −60 mV. […] The concentration of GABA corresponded to the EC10 value calculated for each oocyte. The modulator pulses started 30 s before the GABA pulse so as to allow preincubation with the modulator. A set of 3 pulses with just GABA without modulator was given prior to the modulator-containing pulses to define the baseline GABA response. Two oocytes per each experiment were dedicated to observe the effect of diazepam on GABA response to ensure the presence of γ2 subunit in the GABAA pentameric complex, which imparts diazepam sensitivity to the complex.
Current amplitude (i) was measured from baseline to peak using Clampfit (Axon Inst., Foster City, Calif.). Potentiation was calculated as percent change from the baseline GABA current flux 100×(imod/icontrol)−1) where imod=current mediated by modulator+GABA and icontrol=current mediated by GABA alone. […] Similarly, a value of −50% potentiation means the presence of modulator caused a 50% decrease in the control current. Various other data shown here were fitted and plotted using GraphPad Prism (GraphPad Software, Inc. San Diego, Calif.). The percentage potentiation was converted to relative potentiation by dividing it with percentage potentiation value obtained from the same assay with diazepam as a control.

T1 sequence (P47869 29-451): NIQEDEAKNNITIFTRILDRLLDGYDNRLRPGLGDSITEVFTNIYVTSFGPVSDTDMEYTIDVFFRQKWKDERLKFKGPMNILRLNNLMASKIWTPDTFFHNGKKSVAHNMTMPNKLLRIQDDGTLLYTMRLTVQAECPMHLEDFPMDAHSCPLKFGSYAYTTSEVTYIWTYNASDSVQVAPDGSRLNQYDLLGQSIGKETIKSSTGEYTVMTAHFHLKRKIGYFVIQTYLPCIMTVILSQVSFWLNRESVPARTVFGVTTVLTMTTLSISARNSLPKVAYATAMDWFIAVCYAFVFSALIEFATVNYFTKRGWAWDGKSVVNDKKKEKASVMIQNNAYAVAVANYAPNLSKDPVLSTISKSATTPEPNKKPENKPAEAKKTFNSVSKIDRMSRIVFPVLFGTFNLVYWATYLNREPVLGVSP
T1 sequence (P28472 26-473 partner): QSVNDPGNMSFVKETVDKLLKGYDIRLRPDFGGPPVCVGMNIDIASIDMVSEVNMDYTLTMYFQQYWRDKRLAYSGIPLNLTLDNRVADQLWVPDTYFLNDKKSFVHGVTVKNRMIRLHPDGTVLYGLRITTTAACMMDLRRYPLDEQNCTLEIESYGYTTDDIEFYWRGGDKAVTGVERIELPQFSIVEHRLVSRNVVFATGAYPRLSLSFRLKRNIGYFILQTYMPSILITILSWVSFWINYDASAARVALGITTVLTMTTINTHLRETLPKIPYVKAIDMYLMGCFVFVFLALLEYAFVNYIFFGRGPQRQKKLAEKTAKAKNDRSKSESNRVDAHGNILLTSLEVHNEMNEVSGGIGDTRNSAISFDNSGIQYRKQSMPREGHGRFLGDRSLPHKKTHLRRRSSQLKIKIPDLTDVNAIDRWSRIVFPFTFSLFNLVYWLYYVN
T1 sequence (P18507 40-475): as the sequence (P18507 40-475) above

| Ki [1] | Relative Potentiation for GABAA1 [2] | Structure (SMILES) |
| --- | --- | --- |
| 2.19 nM | 0.28 | COc1ccncc1-c1cccc2c(N)c3c(nc12)CN(Cc1ccc2c(c1)OCO2)C3=O [9-amino-2-(benzo[d][1,3]dioxol-5-ylmethyl)-5-(4-methoxypyridin-3-yl)-2,3-dihydro-1H-pyrrolo[3,4-b]quinolin-1-one] |
| 4.62 nM | 0.25 | CCCCN1Cc2nc3c(-c4c(F)cccc4OC)cccc3c(N)c2C1=O [9-amino-2-butyl-5-(2-fluoro-6-methoxyphenyl)-2,3-dihydro-1H-pyrrolo[3,4-b]quinolin-1-one] |
| 21.3 nM | 0.56 | CCCCN1Cc2nc3c(-c4cc(C)ccc4OC)cccc3c(N)c2C1=O [9-amino-2-butyl-5-(2-methoxy-5-methylphenyl)-2,3-dihydro-1H-pyrrolo[3,4-b]quinolin-1-one] |
| 19.7 nM | 0.5 | CCCCN1Cc2nc3c(-c4cccnc4OC)cccc3c(N)c2C1=O [9-amino-2-butyl-5-(2-methoxypyridin-3-yl)-2,3-dihydro-1H-pyrrolo[3,4-b]quinolin-1-one] |
| 3.15 nM | 0.16 | Nc1c2c(nc3c(-c4cc(Cl)ccc4Cl)cccc13)CN(C1CCC1)C2=O [9-amino-2-cyclobutyl-5-(2,5-dichlorophenyl)-2,3-dihydro-1H-pyrrolo[3,4-b]quinolin-1-one] |
| 4.07 nM | 0.19 | COc1ccc(C)cc1-c1cccc2c(N)c3c(nc12)CN(C1CCC1)C3=O [9-amino-2-cyclobutyl-5-(2-methoxy-5-methylphenyl)-2,3-dihydro-1H-pyrrolo[3,4-b]quinolin-1-one] |
| 22.7 nM | 0.48 | Nc1c2c(nc3c(-c4ccccc4C(F)(F)F)cccc13)CN(C1CC1)C2=O [9-amino-2-cyclopropyl-5-(2-(trifluoromethyl)phenyl)-2,3-dihydro-1H-pyrrolo[3,4-b]quinolin-1-one] |
| 4.76 nM | 0.28 | COc1ccc(C)cc1-c1cccc2c(N)c3c(nc12)CN(C1CC1)C3=O [9-amino-2-cyclopropyl-5-(2-methoxy-5-methylphenyl)-2,3-dihydro-1H-pyrrolo[3,4-b]quinolin-1-one] |
| 31.9 nM | 0.5 | COc1ccc(-c2cccc3c(N)c4c(nc23)CN(C2CC2)C4=O)c(C(F)(F)F)c1 [9-amino-2-cyclopropyl-5-(4-methoxy-2-(trifluoromethyl)phenyl)-2,3-dihydro-1H-pyrrolo[3,4-b]quinolin-1-one] |
| 8.1 nM | 0.21 | COc1ccncc1-c1cccc2c(N)c3c(nc12)CN(C1CC1)C3=O [9-amino-2-cyclopropyl-5-(4-methoxypyridin-3-yl)-2,3-dihydro-1H-pyrrolo[3,4-b]quinolin-1-one] |
| 7.65 nM | 0.23 | COc1ccc(C)cc1-c1c(F)ccc2c(N)c3c(nc12)CN(C1CC1)C3=O [9-amino-2-cyclopropyl-6-fluoro-5-(2-methoxy-5-methylphenyl)-2,3-dihydro-1H-pyrrolo[3,4-b]quinolin-1-one] |
| 25.6 nM | 0.2 | CCN1Cc2nc3c(-c4cc(C)ccc4OC)cccc3c(N)c2C1=O [9-amino-2-ethyl-5-(2-methoxy-5-methylphenyl)-2,3-dihydro-1H-pyrrolo[3,4-b]quinolin-1-one] |
| 49.8 nM | 0.55 | CCCN1Cc2nc3c(-c4ccc(OC)c(OC)c4OC)cccc3c(N)c2C1=O [9-amino-2-propyl-5-(2,3,4-trimethoxyphenyl)-2,3-dihydro-1H-pyrrolo[3,4-b]quinolin-1-one] |
| 5.53 nM | 0.35 | CCCN1Cc2nc3c(-c4ccccc4C)cccc3c(N)c2C1=O [9-amino-2-propyl-5-(2-methylphenyl)-2,3-dihydro-1H-pyrrolo[3,4-b]quinolin-1-one] |
| 89.8 nM | 0.96 | CCCN1Cc2nc3c(-c4cc(OC)c(OC)c(OC)c4)cccc3c(N)c2C1=O [9-amino-2-propyl-5-(3,4,5-trimethoxyphenyl)-2,3-dihydro-1H-pyrrolo[3,4-b]quinolin-1-one] |
| 80.7 nM | 0.37 | CCCN1Cc2nc3c(-c4ccc(C)cc4)cccc3c(N)c2C1=O [9-amino-2-propyl-5-(4-methylphenyl)-2,3-dihydro-1H-pyrrolo[3,4-b]quinolin-1-one] |
| 24.6 nM | 0.43 | CCCN1Cc2nc3c(-c4ccncc4)cccc3c(N)c2C1=O [9-amino-2-propyl-5-(pyridin-4-yl)-2,3-dihydro-1H-pyrrolo[3,4-b]quinolin-1-one] |
| 19.5 nM | 0.29 | CCCN1Cc2nc3c(-c4ccc5ncccc5c4)cccc3c(N)c2C1=O [9-amino-2-propyl-5-(quinolin-6-yl)-2,3-dihydro-1H-pyrrolo[3,4-b]quinolin-1-one] |
| 30.8 nM | 0.19 | CCCN1Cc2nc3c(-c4ccsc4)cccc3c(N)c2C1=O [9-amino-2-propyl-5-(thiophen-3-yl)-2,3-dihydro-1H-pyrrolo[3,4-b]quinolin-1-one] |
| 26.8 nM | 0.55 | CCCN1Cc2nc3c(-c4ccc5[nH]ccc5c4)cccc3c(N)c2C1=O [9-amino-5-(1H-indol-5-yl)-2-propyl-2,3-dihydro-1H-pyrrolo[3,4-b]quinolin-1-one] |
| 14.9 nM | 0.39 | CCCN1Cc2nc3c(-c4ccc(F)cc4F)cccc3c(N)c2C1=O [9-amino-5-(2,4-difluorophenyl)-2-propyl-2,3-dihydro-1H-pyrrolo[3,4-b]quinolin-1-one] |
| 32.1 nM | 0.25 | COc1ccc(CN2Cc3nc4c(-c5ccc(OC)cc5OC)cccc4c(N)c3C2=O)cc1 [9-amino-5-(2,4-dimethoxyphenyl)-2-(4-methoxybenzyl)-2,3-dihydro-1H-pyrrolo[3,4-b]quinolin-1-one] |
| 13.9 nM | 0.39 | CCCN1Cc2nc3c(-c4ccc(OC)cc4OC)c(F)ccc3c(N)c2C1=O [9-amino-5-(2,4-dimethoxyphenyl)-6-fluoro-2-propyl-2,3-dihydro-1H-pyrrolo[3,4-b]quinolin-1-one] |

| Structure (SMILES) | Ki [1] | Relative Potentiation for GABAA1 [2] |
| --- | --- | --- |
| CCCN1Cc2nc3c(-c4ccccc4C(F)(F)F)cccc3c(N)c2C1=O [9-amino-2-propyl-5-(2-(trifluoromethyl)phenyl)-2,3-dihydro-1H-pyrrolo[3,4-b]quinolin-1-one] | 16.6 nM | 0.48 |
| CCCN1Cc2nc3c(-c4cccc(OC)c4OC)cccc3c(N)c2C1=O [9-amino-5-(2,3-dimethoxyphenyl)-2-propyl-2,3-dihydro-1H-pyrrolo[3,4-b]quinolin-1-one] | 24.5 nM | 0.3 |
